Test results as given in publication PMC7334220, “Diamond Blackfan anemia is mediated by hyperactive Nemo-like kinase” (Nature Communications, 2020).

How the values were obtained:
c-Myb = c-Myb expression and phosphorylation in Kp53A1 cells switched to 32 °C (Western blot); format: cell-based; conditions: pretreated 30 min, 37 to 32 °C for 0, 16, 48 h, Fig. 7d
Description: (§1) Bars represent means ± SD with individual data points overlaid. n = 3 independent experiments performed in triplicate. […] Source data are provided as a Source Data file.
Inhibitors were added to cells at indicated concentrations with a final DMSO concentration of 0.5%. […] IC50 calculations were obtained using 8–9 concentrations of compound and generated using the IC50 Calculator software by AAT Bioquest®. NLK, p38, or ALK5 for in vitro kinase assays were immunopurified from Kp53A1 cells. NLK activation was induced by incubating cells at 32° for 24-48 h, p38 by stimulating with IL-3, IL-6, SCF, and Epo at the same concentrations used for differentiating erythroid progenitors.

NLK dimerization and p53 [1] = assay: YFP-/CFP-NLK FRET (NLK dimerization) and p53 flow cytometry in healthy bone marrow mononuclear cells; format: cell-based, human; conditions: Nutlin-3 24 h, control 6.6%, Fig. 6c, d
Description: as §1

NLK dimerization and p53 [2] = assay: YFP-/CFP-NLK FRET (NLK dimerization) and p53 flow cytometry in cord blood CD34+ HSPCs; format: cell-based, human; conditions: d
Description: Ribosome-insufficiency induces stabilization of p53 protein and contributes to DBA pathogenesis[27],[57]–[59]. […] To further examine the role of p53 in NLK activation in our model and DBA patient samples, we utilized Nutlin-3. Nutlin-3 inhibits the E3 ubiquitin ligase MDM2 binding of p53 and subsequently stabilizes p53 from ubiquitin-dependent degradation. NLK dimerizes upon activation[46] and the detection of FRET from dimerized YFP- and CFP-NLK pairs correlates with NLK activity in RPS19-insufficiency (Fig. 3d). […] We gated p53 expression into p53^low in which 6.6% of cells activate NLK, and p53^hi where 91.9% of cells activate NLK (Fig. 6b.ii). RPS19-insufficiency increased the p53^hi population from 8.1 to 34.1%, corresponding to an increase from 9.0 to 36.1% of cells with elevated NLK-dimerization (Fig. 6b.iii).
Fig. 6 NLK is activated in early erythroid progenitors and requires P53 stabilization in RPS19-insufficiency. a Cord blood CD34^+ progenitors were transduced with lentivirus expressing shRNA against luciferase (shLuc) or RPS19 (shRPS19) co-expressing GFP. Cells were also transduced with or without shRNA against p53 co-expressing mCherry. […] Cells were stained for p53 and both p53 and FRET was measured by flow cytometry. […] Bone marrow mononuclear cells from three DBA patients were pooled and analyzed simultaneously (iii). d Documentation of the percentage of cells with dimerizing NLK in p53^hi and p53^low is tabulated and can be compared with NLK in vitro kinase activity. e—green Samples were gated to include non-erythroid CD71^-CD235^- populations, MEP- and BFU-E-enriched CD71^lowCD235^- populations, CFU-E-enriched CD71^hiCD235^- populations and proerythroblast and intermediate erythroblast CD71^hiCD235^+ populations. […]

[3] = system: RPS19-insufficient cord blood CD34+ HSPCs; assay: In vitro differentiation of cord blood CD34+ HSPCs transduced with shRNA against RPS19 (cell count and flow cytometry); format: cell-based, human; conditions: RPS19-insufficient erythroblasts treated at 100nM; rebuttal Experiment 12
Description: Cells were plated at 2000 cell per well in 96-well plates in the presence or absence of doxycycline. Relative amounts of live cells were quantified by luciferase-based Cell titer-Glo® assay. b TGFβR1 inhibitors were assessed for their ability to increase cell expansion in RPS19-insuffiency. As a control, vehicle alone (no doxycycline) is represented at the far left while all other samples were treated with doxycycline to induce RPS19-insufficiency. c Kit^+ erythroid progenitors were grown in the absence of doxycycline and in the presence of 10 µM of indicated compound. In addition, cells were treated with 5 ng/ml of TGFβ1 for 5 days before being subjected to Cell titer-Glo® assay. d Differentiating cord blood CD34^+ progenitors were transduced with shRNA against luciferase or RPS19 and treated with inhibitors at working concentrations for TGFβ inhibition every three days. […] Cells were counted and CD235^+ erythroid (i and iii) and CD11b^+ myeloid cell (ii and iv) percentages were determined by flow cytometry. The number of erythroid or myeloid cells is expressed as a percentage of the number of that lineage with no cytokine or drug treatment. Bars represent means ± SD with individual data points overlaid. n = 3 independent experiments performed in triplicate. Statistics: two-tailed Student’s t test, significant *p < 0.05. Also see Supplementary Fig. 1. Erythroid expansion is depicted in red while myeloid is in purple. Source data are provided as a Source Data file.
Cells were counted and assessed for cell surface expression of CD235. b Lin-Kit^+ hematopoietic progenitors were obtained from three mouse embryos expressing tetracycline-inducible shRNA against RPS19 at day E14.5 or three untreated mice, and thee mature RPL11^+/+ or three mature RPL11^+/lox mice treated with tamoxifen for eight weeks. […] Values were expressed as a percentage relative to untreated controls. c, d Intracellular phosphorylation of NLK at Thr298 was determined by capillary electrophoresis using the Peggy Sue™ Automated Western blotting platform. After lysis, 4 µg of protein from the CD235^+ population was probed against pThr298-NLK and normalized to GAPDH. […] After counting the total cell population, the ratio of CD235^+ erythroblasts was determined by flow cytometry and number of CD235^+ erythroblasts calculated. This was expressed as a percentage of the average number of erythroid cells present in untreated healthy controls. f NLK phosphorylation was assessed by capillary electrophoresis as above. Bars represent means ± SD with individual data points overlaid. […] Statistics: two-tailed Student’s t test, significant *p < 0.05. Also see Supplementary Fig. 8. Source data are provided as a Source Data file.
Primary human CD34^+ hematopoietic stem and progenitor cells were purified from cord or peripheral blood (New York Blood Center) or from human fetal liver tissue (Advanced Bioscience Resources and University of California, Los Angeles Center for AIDS Research) by using magnetic-activated cell sorting (Miltenyi Biotec) and were cryopreserved. Upon thawing, cells were cultured in x-Vivo15 media (Lonza) containing 10% fetal bovine serum, fms-related tyrosine kinase 3 (50 ng/ml), […] (50 ng/ml), interleukin-3 (IL-3; 20 ng/ml), interleukin-6 (IL-6; 20 ng/ml), and stem cell factor (50 ng/ml). When applied, TGFβ1 was added at 5 ng/ml. Kp53A1 cells were obtained from Javier Leon and cultured in DMEM supplemented with 10% fetal bovine serum at 37 or 32 °C.

[4] = system: NLK phosphorylation at Thr298; assay: SDS-PAGE / pThr298-NLK Western blot after NLK in vitro kinase reaction (rebuttal Experiment 6); format: biochemical, human; conditions: Day 7
Description: Experiment 5. Activated p38 and NLK have different kinase specificity for NLK, c- […]
Immunopurification of activated NLK and p38 were incubated in the presence of ATP, Mg2+ and immobilized, dephosphorylated substrates. After 30 mins, the degree of substrate phosphorylation was determined. Of the four substrates examined, NL K wa s the most phosphorylated substrate detected wit h p38. The extent of phosphorylation of the other substrates by p38 was normalized to NLK as substrate , i.e. NLK-100%, c-Myb -79%, Raptor-33%, ST AT 3 -18%. Raptor was the most phosphorylated substrate of NLK. Consequently, phosphorylation of other substrates by NLK is expressed as a percentage of NLK-mediated Raptor phosphorylation, i.e . NLK-37%, c-M yb -80%, […]
Conclusion: W hile p38 and NLK can phosphorylate NLK, c-Myb and Raptor in vitro, we observe different specificities between immunoprecipitated NLK and p38. This would […]
1) W estern blotting analysis or RadioIsotope ivk assay showing increase of NLK autophosphorylation activity (Graph data is not suitable. SDS-PAGE gel data with molecular maker is suitable to show the activity of NLK itself)
Response: We performed the W estern blot analysis as requested. Purified NLK incubated with immunopurified NLK from treated samples, were separated by SDS-PAGE and immunoblotted with pThr298- NLK antibody. […]

p38 phosphorylation = p38 phosphorylation in treated cells (Western blot of pp38); format: cell-based, human; conditions: 100nM; rebuttal Experiment 12
[5] = 3 days with Nutlin-3, Fig. 6b.ii

Question: For `CC(=O)N[C@@H](CSC(=O)[C@]1([C@@H](O)C(C)C)NC(=O)[C@H](C)[C@@H]1O)C(=O)O` [lactacystin], which “expression and phosphorylation of c-Myb after NLK activation” value (c-Myb) is on record?
Answer: sustained out to 48 h

Question: What does the source list for `COc1ccc(C2=N[C@@H](c3ccc(Cl)cc3)[C@@H](c3ccc(Cl)cc3)N2C(=O)N2CCNC(=O)C2)c(OC(C)C)c1` [Nutlin-3]?
Answer: % P53hi (NLK dimerization and p53 [1]): 31.7%; % FREThi in P53hi (NLK dimerization and p53 [2]; [5]): 91.9%; % FREThi in P53low (NLK dimerization and p53 [2]; [5]): 6.6%; % FREThi (cells with NLK dimerization) (NLK dimerization and p53 [2]; shLuc, 3 days with Nutlin-3, control 9.0%, Fig. 6b): 50.2%

Question: `CNC(=O)c1ccc(C)c(-n2c(C)cc(OCc3ccc(F)cc3F)c(Br)c2=O)c1` [PH797804] was tested. Which “increase in erythropoiesis in RPS19-insufficiency” value [3] did it give?
Answer: no increase

Question: And the “phosphorylation of NLK at Thr298 by NLK immunopurified from treated RPS19-insufficient cells” value [4]?
Answer: not suppressed

Question: And the “inhibition of p38” value (p38 phosphorylation)?
Answer: inhibited

Question: For `C[C@@H]1CN(Cc2ccc(F)cc2)[C@@H](C)CN1C(=O)c1cc2c(C(=O)C(=O)N(C)C)cn(C)c2cc1Cl` [SCIO-469], which “increase in erythropoiesis in RPS19-insufficiency” value [3] is on record?
Answer: no increase

Question: What about the “inhibition of p38” value (p38 phosphorylation) of the same compound?
Answer: inhibited
